Source: patent US7232912B2, “Indazole compounds, pharmaceutical compositions, and methods for mediating or inhibiting cell proliferation” (Agouron Pharmaceuticals, Inc., priority 2000, dated 2007)

What was measured:
HCT 116 cell line = experiment: Inhibition of Cell Growth (MTT tetrazolium salt assay); type: cell-based; details: Homo sapiens, HCT 116, MTT; for IC50: 50% inhibition of growth, read-out: HCT 116 IC50; for IC90: read-out: HCT 116 IC90
Procedure: Inhibition of Cell Growth: Assessment of Cytotoxicity
Inhibition of cell growth was measured using the tetrazolium salt assay, which is based on the ability of viable cells to reduce 3-(4,5-dimethylthiazol-2-yl)-2,5-[2H]-diphenyltetrazolium bromide (MTT) to formazan (Mossman, Journal of Immunological Methods, vol. 65 (1983), pp. 55–58). The water-insoluble purple formazan product was then detected spectrophotometrically. The HCT 116 cell line was grown in 96-well plates. Cells were plated in the appropriate medium at a volume of 135 μl/well in McCoy's 5A Medium. Plates were incubated for four hours before addition of inhibitor compounds. Different concentrations of inhibitor compounds were added in 0.5% (v/v) dimethylsulfoxide (15 μL/well), and cells were incubated at 37° C. (5% CO2) for four to six days (depending on cell type). At the end of the incubation, MTT was added to a final concentration of 0.2 mg/mL, and cells were incubated for 4 hours more at 37° C. After centrifugation of the plates and removal of medium, the absorbance of the formazan (solubilized in dimethylsulfoxide) was measured at 540 nm. The concentration of inhibitor compound causing 50% inhibition of growth was determined from the linear portion of a semi-log plot of inhibitor concentration versus percentage inhibition. All results were compared to control cells treated only with 0.5% (v/v) dimethylsulfoxide.

FGFR1 tyrosine kinase = molecular target: T1, FGFR1 tyrosine kinase (Homo sapiens, UniProt P11362, C488A/C584S/L457V); experiment: Inhibition of phosphorylated FGF receptor tyrosine kinase activity; type: biochemical; details: for inhibition at 1 µM: read-out: FGF % Inhib. at 1 μM
T1 construct: the cytosolic domain of FGFR1 tyrosine kinase (amino acids 456–766); made in house; host or cells: Sf9 insect cells (baculovirus)
T1 sequence (P11362 456-766 L457V/C488A/C584S): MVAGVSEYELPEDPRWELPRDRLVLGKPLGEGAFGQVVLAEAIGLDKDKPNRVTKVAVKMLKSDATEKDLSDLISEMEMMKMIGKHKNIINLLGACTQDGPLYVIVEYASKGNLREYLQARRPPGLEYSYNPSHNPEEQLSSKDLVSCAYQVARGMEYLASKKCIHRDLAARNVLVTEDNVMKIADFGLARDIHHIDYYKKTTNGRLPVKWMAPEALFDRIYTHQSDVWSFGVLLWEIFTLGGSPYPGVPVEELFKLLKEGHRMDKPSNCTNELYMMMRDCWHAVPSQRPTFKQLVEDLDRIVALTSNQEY
Procedure: Inhibition of Phosphorylated FGF Receptor and LCK Tyrosine Kinase Activity
Cloning, expression and purification of the cytosolic domain of FGFR1 tyrosine kinase (amino acids 456–766) containing three amino acid substitutions (L457V, C488A, and C584S) were conducted as previously described (Mohammadi, M., Schlessinger, J., & Hubbard, S. R. (1996) Cell 86, 577–587). This domain was expressed in Sf9 insect cells using a baculovirus expression vector, and protein was purified using conventional techniques. The LCK tyrosine kinase was expressed in insect cells as an N-terminal deletion starting from amino acid 223 to the end of the protein at amino acid 509. The N-terminus of the protein also had two amino acid substitutions, P223M and C 224D. Kinases were purified using conventional chromatographic methods.
Tyrosine kinase activity was measured using a coupled, continuous spectrophotometric assay, in which production of phosphorylated poly(Glu, Tyr; 4:1) substrate and ADP is coupled to the pyruvate kinase-catalyzed transfer of a phosphate from phosphoenolpyruvate to ADP, with generation of pyruvate and regeneration of ATP. Pyruvate production is in turn coupled to the lactate dehydrogenase-catalyzed reduction of pyruvate to form lactate, with concomitant conversion of NADH to NAD+. Loss of NADH is monitored by measuring absorbance at 340 nm (see e.g., Technikova-Dobrova et al., “Spectrophotometric determination of functional characteristics of protein kinases with coupled enzymatic assay,” FEBS Letters, vol. 292 (1991), pp. 69–72). Enzyme activity was measured in the presence of 200 mM HEPES (pH 7.5), 2 mM phosphoenolpyruvate, 0.3 mM NADH, 20 mM MgCl2, 100 μM ATP, 5 mM DTT, 5.1 or 25 mM poly (Glu,Tyr) 4:1 for P-FGF or P-LCK assays, respectively, and 15 units/mL each of pyruvate kinase and lactate dehydrogenase. Phosphorylated FGF receptor kinase was present at 100 nM and phosphorylated LCK kinase was present at 50 nM. Assays were performed under initial rate conditions at 37° C., and rates were corrected for any background rate measured in the absence of enzyme. Percent inhibition was calculated relative to control enzyme assayed in the presence of 2% (v/v) DMSO.

CDK4/cyclin D3 = CDK4/cyclin D3 (Homo sapiens, UniProt P11802); experiment: Inhibition of CDK4/Cyclin D Retinoblastoma Kinase Activity; type: biochemical; details: apparent Ki
Chain of CDK4/cyclin D3 (P11802 2-303 limits assumed): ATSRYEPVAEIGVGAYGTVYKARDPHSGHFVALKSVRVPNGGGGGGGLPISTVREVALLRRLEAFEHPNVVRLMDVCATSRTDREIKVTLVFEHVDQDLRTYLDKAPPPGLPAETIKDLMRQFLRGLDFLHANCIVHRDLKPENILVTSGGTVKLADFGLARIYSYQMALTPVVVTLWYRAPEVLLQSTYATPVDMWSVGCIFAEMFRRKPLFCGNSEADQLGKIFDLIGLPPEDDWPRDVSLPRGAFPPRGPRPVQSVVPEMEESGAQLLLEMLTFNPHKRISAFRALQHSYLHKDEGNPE
Chain of CDK4/cyclin D3 (P30281 1-264 limits assumed, further chain): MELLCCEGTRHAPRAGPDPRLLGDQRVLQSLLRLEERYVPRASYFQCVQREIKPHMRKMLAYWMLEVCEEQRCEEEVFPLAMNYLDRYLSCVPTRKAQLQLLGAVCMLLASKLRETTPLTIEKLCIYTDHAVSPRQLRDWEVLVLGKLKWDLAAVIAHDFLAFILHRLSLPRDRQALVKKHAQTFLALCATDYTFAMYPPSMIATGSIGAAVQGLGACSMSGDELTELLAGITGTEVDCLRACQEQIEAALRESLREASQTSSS
Procedure: (§1) Cyclin-dependent kinase activity was measured by quantifying the enzyme-catalyzed, time-dependent incorporation of radioactive phosphate from [^32P]ATP or [^33P]ATP into a protein substrate. Unless noted otherwise, assays were performed in 96-well plates in a total volume of 50 μL, in the presence of 10 mM HEPES (N-[2-hydroxyethyl]piperazine-N′-[2-ethanesulfonic acid]) (pH 7.4), 10 mM MgCl2, 25 μM adenosine triphosphate (ATP), 1 mg/mL ovalbumin, 5 μg/mL leupeptin, 1 mM dithiothreitol, 10 mM beta-glycerophosphate, 0.1 mM sodium vanadate, 1 mM sodium fluoride, 2.5 mM ethylene glycol-bis(β-aminoethyl ethKer)-N,N,N′N′-tetraacetic acid (EGTA), 2% (v/v) dimethylsulfoxide, and 0.03–0.4 μCi [^32/33P]ATP per reaction. Reactions were initiated with appropriate enzyme, incubated at 30° C., and terminated after 20 minutes by the addition of ethylenediaminetetraacetic acid (EDTA) to 250 mM. The phosphorylated substrate was then captured on a nitrocellulose or phosphocellulose membrane using a 96-well filtration manifold, and unincorporated radioactivity was removed by repeated washing with 0.85% phosphoric acid. Radioactivity was quantified by exposing the dried membranes to a phosphorimager.
(§2) Apparent Ki values were measured by assaying enzyme activity in the presence of different inhibitor compound concentrations and subtracting the background radioactivity measured in the absence of enzyme. Inhibition data were fit to an equation for competitive inhibition using Kaleidagraph (Synergy Software), or were fit to an equation for competitive tight-binding inhibition using the software KineTic (BioKin, Ltd.).
Inhibition of CDK4/Cyclin D Retinoblastoma Kinase Activity
A complex of human CDK4 and cyclin D3, or a complex of human CDK4 and genetically truncated (1–264) cyclin D3, was purified using traditional biochemical chromatographic techniques from insect cells that had been co-infected with the corresponding baculovirus expression vectors (see e.g., Meijer and Kim, “Chemical Inhibitors of Cyclin-Dependent Kinases,” Methods in Enzymol,. vol. 283 (1997), pp. 113–128.). The enzyme complex (5 or 50 nM) was assayed with 0.3–0.5 μg of purified recombinant retinoblastoma protein fragment (Rb) as a substrate. The engineered Rb fragment (residues 386–928 of the native retinoblastoma protein; 62.3 kDa) contains the majority of the phosphorylation sites found in the native 106-kDa protein, as well as a tag of six histidine residues for ease of purification. Phosphorylated Rb substrate was captured by microfiltration on a nitrocellulose membrane and quantified using a phosphorimager as described above. For measurement of tight-binding inhibitors, the enzyme complex concentration was lowered to 5 nM, and the assay duration was extended to 60 minutes, during which the time-dependence of product formation was linear.

CDK2/cyclin A = molecular target: T2, CDK2/cyclin A (Homo sapiens, UniProt P24941); experiment: Inhibition of CDK2/Cyclin A Retinoblastoma Kinase Activity; type: biochemical; details: apparent Ki
T2 construct: made in house; host or cells: CDK2: insect cells (baculovirus); cyclin A: E. coli
Procedure: as §1, §2
Inhibition of CDK2/Cyclin A Retinoblastoma Kinase Activity
CDK2 was purified using published methodology (Rosenblatt et al., “Purification and Crystallization of Human Cyclin-dependent Kinase 2,” J. Mol. Biol., vol. 230, 1993, pp. 1317–1319) from insect cells that had been infected with a baculovirus expression vector. […] A complex of CDK2 and proteolyzed cyclin A was prepared and purified by gel filtration. The substrate for this assay was the same Rb substrate fragment used for the CDK4 assays, and the methodology of the CDK2/cyclin A and the CDK4/cyclin D3 assays was essentially the same, except that CDK2 was present at 150 nM or 5 nM. Ki values were measured as described above.

Compound	IC50 (HCT 116 cell line) [nM]	IC90 (HCT 116 cell line) [nM]	Ki (FGFR1 tyrosine kinase) [nM]	Ki (CDK4/cyclin D3) [nM]	Ki (CDK2/cyclin A) [nM]	inhibition at 1 µM (FGFR1 tyrosine kinase) [%]
c1ccc2c(-c3ccc4[nH]nc(-c5nc6ccccc6[nH]5)c4c3)cncc2c1 [Example 25, 4-[3-(1H-Benzoimidazol-2-yl)-1H-indazol-5-yl]-isoquinoline]	330	1100	440	10	1	
Oc1cc(F)c(-c2ccc3[nH]nc(-c4nc5ccccc5[nH]4)c3c2)c(F)c1 [Example 50, 4-[-3-(1H-Benzoimidazol-2-yl)-1H-indazol-5-yl]-3,5-difluoro-phenol]	1800	5000		253	73	89.6
Cc1c(-c2ccncc2)cncc1-c1ccc2[nH]nc(-c3nc4c(CN(C)C)cccc4[nH]3)c2c1 [Example 68, Dimethyl-{2-[5-(4-methyl-[3,4′]bipyridinyl-5-yl)-1H-indazol-3-yl]-1H-benzoimidazol-4-ylmethyl}-amine]	160	600		4.7	1.1	12.6
CC(CO)CNCc1cccc2[nH]c(-c3n[nH]c4ccc(-c5cncc6ccccc56)cc34)nc12 (stereo not shown) [Example 35, 3-{[2-(5-Isoquinolin-4-yl-1H-indazol-3-yl)-1H-benzoimidazol-4-ylmethyl]-amino}-2-methyl-propan-1-ol]	130	370		3.2	1	40.5
Cc1c(-c2ccc3[nH]nc(/C=C/c4ccccc4)c3c2)ccc(CCCO)c1O [Example 22, 6-(3-Hydroxy-propyl)-2-methyl-3-[3-((E)-styryl)-1H-indazol-5-yl]-phenol]	5000	5000		15	94	93.5
Cc1c(O)cccc1-c1ccc2[nH]nc(-c3nc4c(CO)cccc4[nH]3)c2c1 [Example 23, 3-[3-(4Hydroxymethyl-1H-benzoimidazol-2-yl)-1H-indazol-5-yl]-2-methyl-phenol]	4000	5000	800	65	41	
Oc1ccc(F)c(-c2ccc3[nH]nc(-c4nc5ccccc5[nH]4)c3c2)c1F [Example 49, 3-[-3-(1H-Benzoimidazol-2-yl)-1H-indazol-5-yl]-2,4-difluoro-phenol]	2300	4800		95	49	86.7
Cc1c(-c2ccc3[nH]nc(-c4nc5ccccc5[nH]4)c3c2)cncc1-c1c[nH]cn1 [Example 65, 3-(1H-Benzoimidazol-2-yl)-5-[5-(1H-imidazol-4-yl)-4-methyl-pyridin-3-yl]-1H-indazole]	390	1300		2.8	1	44.1
Fc1cccc2cncc(-c3ccc4[nH]nc(/C=C/c5ccccc5)c4c3)c12 [Example 44]	5000	5000		19	29	56.2
OCCc1cccc2[nH]c(-c3n[nH]c4ccc(-c5cncc6ccccc56)cc34)nc12 [Example 30]	180	620		11	1	52.4
CNCc1cccc2[nH]c(-c3n[nH]c4ccc(-c5cncc6ccccc56)cc34)nc12 [Example 32, [2-(5-Isoquinolin-4-yl-1H-indazol-3-yl)-1H-benzoimidazol-4-yl-methyl]-methyl-amine]	86	230		0.41	0.25	29.7
c1ccc2c(-c3ccc4[nH]nc(-c5nc6c(CCN7CCCC7)cccc6[nH]5)c4c3)cncc2c1 [Example 34, 4-{3-[4-(2-Pyrrolidin-1-yl-ethyl)-1H-benzoimidazol-2-yl]-1H-indazol-5-yl]-isoquinoline]	200	580		19	1	26.9
COc1c(O)cccc1-c1ccc2[nH]nc(-c3nc4ccccc4[nH]3)c2c1 [Example 47, 3-[3-(1H-benzoimidazol-2-yl)-1H-indazol-5-yl]-2-methoxy-phenol]	2100	5000		94	100	81.1
CN1CCN(c2ccc3[nH]c(-c4n[nH]c5ccc(-c6cncc7ccccc67)cc45)nc3c2)CC1 [Example 20, 4-{3-[5-(4-Methyl-piperazin-1-yl)-1H-benzoimidazol-2-yl]-1H-indazol-5-yl}-isoquinoline]	70	400		2.1	0.93	96.9
C(=C\c1n[nH]c2ccc(-c3ccc4ccncc4c3)cc12)/c1ccccc1 [Example 24, 7-[3-((E)Styryl)-1H-indazol-5-yl]-isoquinoline]				690	1100	45.4
